Assay [1] relates to MDA-MB231 cell lines. The assay can be described thus: MTT cell viability assay (IC50). The assay is classed as cell-based. Particulars: Homo sapiens, MDA-MB-231, single dose of treatment, 10^−9 to 10^−4 M, 570 nm absorbance, FIG. 1, read-out: IC50 (half-maximal inhibitory concentration), MTT cell viability. On the procedure: (§1) HCT 116 colon cancer and MDA-MB231 breast cancer cell lines are used in cell culture experiments.
(§2) Cells were treated with high-glucose DMEM medium (Biosera) supplemented with 10% FBS (Gibco) and 1× penicillin/streptomycin (Multicell). The assay was designed to contain 10,000 cells for each well of 24-well cell culture plates before being treated with inhibitors.
(§3) Compound of formula I was dissolved with DMSO as 20 mM stock. 24 hours later, the solution was diluted in DMEM with 10% FBS and final concentration of vehicle DMSO was 0.5% at maximum. Therefore, the vehicle group included 0.5% DMSO concentration in experiments. Intensive cultivation of cells causes a decrease in proliferation capacity.
The MTT cell viability assay was used to detect values of half-maximal inhibitory concentration (IC50). Different concentrations of compound of formula I ranging between 10^−9 to 10^−4 M were tested on MDA-MB231 cell lines with single dose of treatment. 570 nm absorbance values were recorded and IC50 values were calculated by dose response—inhibition curves and nonlinear regression analysis on Graphpad Prism 8 software.
On the technique in general: Formazan colour is commonly taken as a measure of viable cells.

In assay [2] the test system is HCT-116 cells. The assay can be described thus: Microscopic evaluation of cells (proliferation, apoptotic morphology). The format is cell-based. Conditions: FIG. 3. On the procedure: Cells were photographed and observed under microscope for three days.
As a result, cell viability decreased by 40% at the end of the first day and reached 60% at the end of the third day. Any cell proliferation change and apoptotic cell morphology were not observed in the untreated and vehicle groups. Moreover, differences in cell morphology were also observed. […] Upon treatment with the compound of formula I according to present invention with 100 μM concentration, cells having the morphology of apoptotic cells were observed starting from the 3rd hour.

For assay [3], the system named is HCT 116 colon cancer and MDA-MB231 breast cancer cell lines. The assay can be described thus: MTT cell proliferation assay (time course). The format is cell-based. Conditions: for cytotoxicity at 100 µM: read-out: cell viability decrease. On the procedure: as §1, §2, §3
For proliferation inhibition analysis, cells were seeded in 24 well plates at 1×10^4 cells/well cells overnight without drug treatment. During the cell proliferation experiments, we performed five days of treatment in each cell line and repeated the experiments three times to check each experiment. No significant difference in cell viability was observed after the third day. Therefore, cells with different drug concentrations were treated for two days. After 48 hours, MTT was applied to the cells and incubated at 37° C. for 4 hours, formazan was solubilized with DMSO (Sigma-Aldrich, St. Louis, USA) and absorbance was measured at 570 nm.
Molecule concentration was 100 μM, the lower concentrations were not shown. Vehicle represents the groups treated with only %0.5 DMSO and Untreated represents no molecule treated group. Molecule responses were evaluated by cell viability which is obtained by spectrophotometric analysis of cells upon MTT treatment at 12 h, 24 h, 48 h and 72 h. […] Statistical significance in graphs was determined by comparing each treatment group with DMSO control using ANOVA testing and significance is considered as p<0.001 (FIG. 2).

Assay [4] deals with MDM2 protein (Homo sapiens, UniProt Q00987). Conditions: versus a natural p53 peptide; cited from earlier work.

Read-outs that look alike come from different tables or passages of the source.

Chain of MDM2 protein (Q00987 whole entry, species assumed): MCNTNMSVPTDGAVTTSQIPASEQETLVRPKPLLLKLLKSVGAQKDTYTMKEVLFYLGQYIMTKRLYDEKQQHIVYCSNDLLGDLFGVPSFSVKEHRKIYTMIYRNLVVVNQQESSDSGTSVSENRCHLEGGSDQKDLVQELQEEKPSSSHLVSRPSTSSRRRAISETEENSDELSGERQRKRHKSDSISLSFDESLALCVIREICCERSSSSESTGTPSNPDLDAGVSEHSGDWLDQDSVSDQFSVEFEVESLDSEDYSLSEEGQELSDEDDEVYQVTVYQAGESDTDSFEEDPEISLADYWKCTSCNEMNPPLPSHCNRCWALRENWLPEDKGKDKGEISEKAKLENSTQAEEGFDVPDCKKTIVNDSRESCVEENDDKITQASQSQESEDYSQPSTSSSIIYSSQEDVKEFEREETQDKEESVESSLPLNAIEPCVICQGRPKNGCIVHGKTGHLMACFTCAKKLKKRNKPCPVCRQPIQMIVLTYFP

In the case of `O=C(O)CC(NC(=O)Cc1c[nH]c2ccccc12)c1ccc(F)cc1` (centres unmarked) [compound of formula I], the IC50 in assay [1] was found to be 77 µM. Further, in assay [2] (100 μM concentration), the “time from which cells having the morphology of apoptotic cells were observed” value came out at 3 hour. Further, in assay [2] (HCT-116), the “apoptotic activity under microscope” value is listed as “clear apoptotic activity from the twelfth hour”. Moreover, the proliferation under microscope result in assay [2] (HCT-116, observed for three days, versus vehicle and untreated) is “reduced proliferation”. Also, the “cell viability compared to vehicle and untreated groups” value in assay [3] (100 μM, MTT at 12 h, 24 h, 48 h and 72 h, ANOVA, p<0.001, FIG. 2) is “statistically significant difference”. Further, the cytotoxicity at 100 µM in assay [3] (end of the first day) came to 40%; in assay [3] (end of the third day) it was 60%.

Turning to MI-319, the “binding affinity to MDM2 relative to natural p53 peptide” value in assay [4] is 500 fold.

The values are drawn from patent US12595232B2, “DRG-MDM2-1 for use as a novel Mouse Double Minute 2 (MDM2) inhibitor” (BAHCESEHIR UNIVERSITESI, priority 2020, dated 2026).
